Assay results: ChEMBL document CHEMBL1155961, “Novel 4-aryl-pyrido[1,2-c]pyrimidines with dual SSRI and 5-HT1A activity: part 2” (Eur J Med Chem, 2009)
pKi: −log10 of the molar value. The source made the active and inactive calls. No cut-off for these calls is given here.

Experiments:
[1] = target: Sodium-dependent serotonin transporter (Rattus norvegicus, UniProt P31652); assay: Displacement of [3H]citalopram from SERT in rat cerebral cortex by liquid scintillation counting; format: tissue-based
[2] = target: T1, 5-hydroxytryptamine receptor 1A (Rattus norvegicus, UniProt P19327); assay: Displacement of [3H]8-OH-DPAT from 5-HT1A receptor in rat hippocampus; format: tissue-based
T1 sequence (P19327 whole entry): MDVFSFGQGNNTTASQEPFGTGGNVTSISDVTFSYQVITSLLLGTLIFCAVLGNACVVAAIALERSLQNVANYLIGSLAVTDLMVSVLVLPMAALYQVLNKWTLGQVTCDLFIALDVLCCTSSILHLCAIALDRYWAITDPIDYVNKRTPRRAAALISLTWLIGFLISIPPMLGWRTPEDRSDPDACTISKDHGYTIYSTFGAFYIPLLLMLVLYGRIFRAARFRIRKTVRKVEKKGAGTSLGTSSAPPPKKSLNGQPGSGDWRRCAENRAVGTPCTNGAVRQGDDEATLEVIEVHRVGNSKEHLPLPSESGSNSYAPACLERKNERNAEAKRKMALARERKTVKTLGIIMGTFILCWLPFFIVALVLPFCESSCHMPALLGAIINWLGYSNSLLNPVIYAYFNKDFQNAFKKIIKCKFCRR

Mus musculus [3] = assay: Effect on hypothermia in Swiss albino mouse assessed as change in rectal body temperature at 20 mg/kg, ip after 60 mins by inducible hypothermia test; format: functional, organism-based; design: dose 20 mg/kg
Mus musculus [4] = assay: Antidepressant activity in Swiss albino mouse assessed as reduction of immobility time at 20 mg/kg, ip administered 30 mins before test measured 6 mins test session after 2 mins habituation period by forced swimming test; format: functional
Mus musculus [5] = assay: Effect on hypothermia in Swiss albino mouse assessed as change in rectal body temperature at 10 mg/kg, ip after 30 mins by inducible hypothermia test; format: functional, organism-based; design: dose 10 mg/kg
Mus musculus [6] = assay: Effect on hypothermia in Swiss albino mouse assessed as change in rectal body temperature at 5 mg/kg, ip after 120 mins by inducible hypothermia test; format: functional, organism-based; design: dose 5 mg/kg
Mus musculus [7] = assay: Effect on hypothermia in Swiss albino mouse assessed as change in rectal body temperature at 5 mg/kg, ip after 90 mins by inducible hypothermia test; format: functional, organism-based; design: dose 5 mg/kg
Mus musculus [8] = assay: Effect on hypothermia in Swiss albino mouse assessed as change in rectal body temperature at 5 mg/kg, ip after 60 mins by inducible hypothermia test; format: functional, organism-based; design: dose 5 mg/kg
Mus musculus [9] = assay: Effect on hypothermia in Swiss albino mouse assessed as change in rectal body temperature at 20 mg/kg, ip dosed 15 mins after 0.1 mg/kg, sc WAY 100635 challenge measured after 30 mins by inducible hypothermia test; format: functional, organism-based
Mus musculus [10] = assay: Effect on hypothermia in Swiss albino mouse assessed as change in rectal body temperature at 20 mg/kg, ip dosed 15 mins after 0.1 mg/kg, sc WAY 100635 challenge measured after 60 mins by inducible hypothermia test; format: functional, organism-based
Mus musculus [11] = assay: Effect on hypothermia in Swiss albino mouse assessed as change in rectal body temperature at 10 mg/kg, ip after 90 mins by inducible hypothermia test; format: functional, organism-based; design: dose 10 mg/kg
Mus musculus [12] = assay: Effect on hypothermia in Swiss albino mouse assessed as change in rectal body temperature at 5 mg/kg, ip after 30 mins by inducible hypothermia test; format: functional, organism-based; design: dose 5 mg/kg
Mus musculus [13] = assay: Effect on hypothermia in Swiss albino mouse assessed as change in rectal body temperature at 20 mg/kg, ip after 120 mins by inducible hypothermia test; format: functional, organism-based; design: dose 20 mg/kg
Mus musculus [14] = assay: Effect on hypothermia in Swiss albino mouse assessed as change in rectal body temperature at 10 mg/kg, ip after 60 mins by inducible hypothermia test; format: functional, organism-based; design: dose 10 mg/kg
Mus musculus [15] = assay: Effect on hypothermia in Swiss albino mouse assessed as change in rectal body temperature at 20 mg/kg, ip after 90 mins by inducible hypothermia test; format: functional, organism-based; design: dose 20 mg/kg
Mus musculus [16] = assay: Effect on hypothermia in Swiss albino mouse assessed as change in rectal body temperature at 20 mg/kg, ip after 30 mins by inducible hypothermia test; format: functional, organism-based; design: dose 20 mg/kg
Mus musculus [17] = assay: Effect on hypothermia in Swiss albino mouse assessed as change in rectal body temperature at 10 mg/kg, ip after 120 mins by inducible hypothermia test; format: functional, organism-based; design: dose 10 mg/kg
Mus musculus [18] = assay: Antidepressant activity in Swiss albino mouse assessed as reduction of immobility time at 10 mg/kg, ip administered 30 mins before test measured 6 mins test session after 2 mins habituation period by forced swimming test; format: functional

Sequence of Sodium-dependent serotonin transporter (P31652 whole entry): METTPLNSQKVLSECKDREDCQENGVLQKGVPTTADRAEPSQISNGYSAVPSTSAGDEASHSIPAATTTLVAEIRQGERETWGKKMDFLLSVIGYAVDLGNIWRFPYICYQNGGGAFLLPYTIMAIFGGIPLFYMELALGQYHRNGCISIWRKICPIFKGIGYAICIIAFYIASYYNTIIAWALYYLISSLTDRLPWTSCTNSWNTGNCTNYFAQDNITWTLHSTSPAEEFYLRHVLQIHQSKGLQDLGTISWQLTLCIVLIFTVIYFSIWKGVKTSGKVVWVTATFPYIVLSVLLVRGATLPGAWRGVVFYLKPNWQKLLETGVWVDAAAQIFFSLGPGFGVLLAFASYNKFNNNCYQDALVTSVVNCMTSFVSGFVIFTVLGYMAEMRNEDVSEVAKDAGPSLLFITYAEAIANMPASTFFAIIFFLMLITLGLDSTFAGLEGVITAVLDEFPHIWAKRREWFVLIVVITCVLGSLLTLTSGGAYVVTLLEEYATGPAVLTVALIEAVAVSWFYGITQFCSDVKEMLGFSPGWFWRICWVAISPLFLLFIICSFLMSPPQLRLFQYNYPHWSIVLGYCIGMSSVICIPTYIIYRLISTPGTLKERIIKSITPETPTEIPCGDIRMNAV

| SMILES | pKi [1] | pKi [2] | further results |
| --- | --- | --- | --- |
| O=c1c(-c2ccccc2Cl)c2n(c(=O)n1CCCCN1CCC(c3c[nH]c4ccccc34)CC1)CCCC2 | 6.99 | 7.44 |  |
| Cc1[nH]c2ccccc2c1C1CCN(CCCCn2c(=O)c(-c3ccccc3Cl)c3n(c2=O)CCCC3)CC1 | 6.32 | 5.68 |  |
| COc1ccc2[nH]cc(C3CCN(CCCCn4c(=O)c(-c5ccc(C)cc5)c5n(c4=O)CCCC5)CC3)c2c1 | 6.87 | 7.64 | deltaT (Mus musculus [3]): -1.3 °C; Activity (Mus musculus [4]): inactive; deltaT (Mus musculus [5]): -0.6 °C; deltaT (Mus musculus [6]): -0.1 °C; deltaT (Mus musculus [7]): -0.1 °C; deltaT (Mus musculus [8]): -0.2 °C; deltaT (Mus musculus [9]): -0.4 °C; deltaT (Mus musculus [10]): -0.4 °C; deltaT (Mus musculus [11]): -0.2 °C; deltaT (Mus musculus [12]): -0.3 °C; deltaT (Mus musculus [13]): -0.7 °C; deltaT (Mus musculus [14]): -0.4 °C; deltaT (Mus musculus [15]): -0.8 °C; deltaT (Mus musculus [16]): -1.3 °C; deltaT (Mus musculus [17]): -0.1 °C; Activity (Mus musculus [18]): inactive |
| Cc1ccc(-c2c3n(c(=O)n(CCCCN4CCC(c5c(C)[nH]c6ccccc56)CC4)c2=O)CCCC3)cc1 | 6.94 | 5.82 |  |
| Cc1ccccc1-c1c2n(c(=O)n(CCCCN3CCC(c4c[nH]c5ccccc45)CC3)c1=O)CCCC2 | 6.91 | 7.27 |  |
| Cc1[nH]c2ccccc2c1C1CCN(CCCCn2c(=O)c(-c3ccccc3)c3n(c2=O)CCCC3)CC1 | 6.56 | 5.85 |  |
| Cc1[nH]c2ccccc2c1C1CCN(CCCCn2c(=O)c(-c3ccccc3F)c3n(c2=O)CCCC3)CC1 | 6.03 | 5.66 |  |
| Cc1[nH]c2ccccc2c1C1CCN(CCCCn2c(=O)c(-c3ccc(Cl)cc3)c3n(c2=O)CCCC3)CC1 | 6.34 | 5.82 |  |
| COc1ccc2[nH]cc(C3CCN(CCCCn4c(=O)c(-c5ccc(F)cc5)c5n(c4=O)CCCC5)CC3)c2c1 | 7.12 | 7.86 |  |
| COc1ccc2[nH]cc(C3CCN(CCCCn4c(=O)c(-c5ccccc5C)c5n(c4=O)CCCC5)CC3)c2c1 | 6.91 | 7.29 |  |
